Results as given in ChEMBL document CHEMBL5365423, “6-Azaspiro[2.5]octanes as small molecule agonists of the human glucagon-like peptide-1 receptor” (Bioorg Med Chem Lett, 2023).
pEC50, pIC50, pKi: −log10 of the molar value.

Assays:
[1] = Apparent permeability in MDCK cells by LC-MS/MS analysis; type: ADME, cell-based, Canis lupus familiaris; conditions: dog
[2] = Intrinsic clearance in human hepatocytes measured per million cells; type: ADME, cell-based, Hepatocyte; conditions: read-out: CLH
[3] = biological target: T1, Glucagon-like peptide 1 receptor (Homo sapiens, UniProt P43220); experiment: Displacement of [125I]-GLP1 from GLP-1 receptor (unknown origin) expressed in CHO cells membrane pre-incubated for 10 mins followed by [125I]-GLP1 addition and measured after 180 mins by microbeta scintillation counting method; type: cell membranes
[4] = biological target: T1, Glucagon-like peptide 1 receptor; experiment: Agonist activity at GLP-1 receptor (unknown origin) expressed in CHO cells at 20 uM in presence of BETP by cAMP assay relative to control; type: functional, cell-based; conditions: filed as agonist
[5] = Drug metabolism in human hepatocytes assessed as glucuronidation by LC/MS/MS analysis; type: ADME, cell-based, Hepatocyte
CYP3A4 = CYP3A4 (Homo sapiens, UniProt P08684); experiment: Inhibition of CYP3A4 (unknown origin) at 3 uM relative to control; type: ADME
[6] = biological target: Voltage-gated inwardly rectifying potassium channel KCNH2 (Homo sapiens, UniProt Q12809); experiment: Inhibition of human ERG dofetilide binding assay; type: toxicity
CYP2C9 = CYP2C9 (Homo sapiens, UniProt P11712); experiment: Inhibition of CYP2C9 (unknown origin) at 3 uM relative to control; type: ADME
CYP2C8 = biological target: T2, CYP2C8 (Homo sapiens, UniProt P10632); experiment: Inhibition of CYP2C8 (unknown origin) at 3 uM relative to control; type: ADME
T2 sequence (P10632 whole entry): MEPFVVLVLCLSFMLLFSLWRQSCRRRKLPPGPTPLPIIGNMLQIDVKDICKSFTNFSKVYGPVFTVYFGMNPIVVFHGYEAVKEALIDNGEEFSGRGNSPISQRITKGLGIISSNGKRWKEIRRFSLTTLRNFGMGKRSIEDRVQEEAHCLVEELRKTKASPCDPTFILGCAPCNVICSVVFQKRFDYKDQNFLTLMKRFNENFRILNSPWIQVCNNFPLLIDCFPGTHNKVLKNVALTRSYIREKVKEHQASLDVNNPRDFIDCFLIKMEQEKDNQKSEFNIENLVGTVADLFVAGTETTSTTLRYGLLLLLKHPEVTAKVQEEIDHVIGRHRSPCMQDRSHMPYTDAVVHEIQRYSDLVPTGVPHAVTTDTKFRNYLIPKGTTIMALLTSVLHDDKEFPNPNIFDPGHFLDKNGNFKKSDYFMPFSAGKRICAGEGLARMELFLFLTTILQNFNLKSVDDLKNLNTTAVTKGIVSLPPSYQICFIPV

[7] = Drug metabolism in human hepatocytes assessed as oxidation by LC/MS/MS analysis; type: ADME, cell-based, Hepatocyte
CYP1A2 = biological target: T3, CYP1A2 (Homo sapiens, UniProt P05177); experiment: Inhibition of CYP1A2 (unknown origin) at 3 uM relative to control; type: ADME
T3 sequence (P05177 whole entry): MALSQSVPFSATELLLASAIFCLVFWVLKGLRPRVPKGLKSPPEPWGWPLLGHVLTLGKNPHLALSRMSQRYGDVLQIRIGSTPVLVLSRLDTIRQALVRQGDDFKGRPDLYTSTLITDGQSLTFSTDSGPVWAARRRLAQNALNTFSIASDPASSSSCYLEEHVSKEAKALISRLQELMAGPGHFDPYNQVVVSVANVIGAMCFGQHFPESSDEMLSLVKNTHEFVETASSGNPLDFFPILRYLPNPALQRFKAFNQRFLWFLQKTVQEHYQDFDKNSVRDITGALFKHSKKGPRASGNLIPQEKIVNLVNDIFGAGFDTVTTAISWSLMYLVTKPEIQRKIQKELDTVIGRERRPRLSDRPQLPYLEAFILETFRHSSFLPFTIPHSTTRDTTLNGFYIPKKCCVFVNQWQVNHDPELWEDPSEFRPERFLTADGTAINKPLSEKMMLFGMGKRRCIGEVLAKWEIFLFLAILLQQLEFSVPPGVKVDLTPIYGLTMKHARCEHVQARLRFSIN

[8] = Lipophilicity, logD of compound; type: physicochemical; conditions: octanol/water
PDE3A1 = experiment: Inhibition of PDE3A1 (unknown origin); type: toxicity, Homo sapiens
CYP2D6 = CYP2D6 (Homo sapiens, UniProt P10635); experiment: Inhibition of CYP2D6 (unknown origin) at 3 uM relative to control; type: ADME
Chain of CYP2D6 (P10635 whole entry): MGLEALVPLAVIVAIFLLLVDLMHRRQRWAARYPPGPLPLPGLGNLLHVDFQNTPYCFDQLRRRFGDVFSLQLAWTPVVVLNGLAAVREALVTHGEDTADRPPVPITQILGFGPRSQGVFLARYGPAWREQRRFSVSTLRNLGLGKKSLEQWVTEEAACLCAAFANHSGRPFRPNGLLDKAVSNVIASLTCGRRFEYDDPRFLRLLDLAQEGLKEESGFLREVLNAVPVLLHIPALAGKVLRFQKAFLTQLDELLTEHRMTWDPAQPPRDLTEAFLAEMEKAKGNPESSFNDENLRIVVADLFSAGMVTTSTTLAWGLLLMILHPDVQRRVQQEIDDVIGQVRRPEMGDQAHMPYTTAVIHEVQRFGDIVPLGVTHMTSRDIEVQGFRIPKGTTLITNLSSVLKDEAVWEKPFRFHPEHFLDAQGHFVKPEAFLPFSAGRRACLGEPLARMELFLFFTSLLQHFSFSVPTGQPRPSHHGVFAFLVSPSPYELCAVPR

T1 sequence (P43220 whole entry): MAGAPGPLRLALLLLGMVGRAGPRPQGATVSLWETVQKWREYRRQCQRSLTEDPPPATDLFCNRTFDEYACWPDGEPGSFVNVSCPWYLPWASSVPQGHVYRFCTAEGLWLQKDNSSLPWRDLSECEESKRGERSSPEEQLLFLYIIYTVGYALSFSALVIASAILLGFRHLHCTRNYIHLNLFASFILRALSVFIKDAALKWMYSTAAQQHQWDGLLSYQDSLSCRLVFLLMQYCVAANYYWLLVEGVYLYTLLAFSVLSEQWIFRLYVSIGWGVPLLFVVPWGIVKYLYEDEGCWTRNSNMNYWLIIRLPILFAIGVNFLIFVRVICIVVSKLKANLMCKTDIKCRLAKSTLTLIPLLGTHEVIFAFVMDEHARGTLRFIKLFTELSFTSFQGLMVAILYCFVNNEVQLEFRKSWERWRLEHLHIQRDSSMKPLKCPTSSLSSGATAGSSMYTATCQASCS
Chain of Voltage-gated inwardly rectifying potassium channel KCNH2 (Q12809 whole entry): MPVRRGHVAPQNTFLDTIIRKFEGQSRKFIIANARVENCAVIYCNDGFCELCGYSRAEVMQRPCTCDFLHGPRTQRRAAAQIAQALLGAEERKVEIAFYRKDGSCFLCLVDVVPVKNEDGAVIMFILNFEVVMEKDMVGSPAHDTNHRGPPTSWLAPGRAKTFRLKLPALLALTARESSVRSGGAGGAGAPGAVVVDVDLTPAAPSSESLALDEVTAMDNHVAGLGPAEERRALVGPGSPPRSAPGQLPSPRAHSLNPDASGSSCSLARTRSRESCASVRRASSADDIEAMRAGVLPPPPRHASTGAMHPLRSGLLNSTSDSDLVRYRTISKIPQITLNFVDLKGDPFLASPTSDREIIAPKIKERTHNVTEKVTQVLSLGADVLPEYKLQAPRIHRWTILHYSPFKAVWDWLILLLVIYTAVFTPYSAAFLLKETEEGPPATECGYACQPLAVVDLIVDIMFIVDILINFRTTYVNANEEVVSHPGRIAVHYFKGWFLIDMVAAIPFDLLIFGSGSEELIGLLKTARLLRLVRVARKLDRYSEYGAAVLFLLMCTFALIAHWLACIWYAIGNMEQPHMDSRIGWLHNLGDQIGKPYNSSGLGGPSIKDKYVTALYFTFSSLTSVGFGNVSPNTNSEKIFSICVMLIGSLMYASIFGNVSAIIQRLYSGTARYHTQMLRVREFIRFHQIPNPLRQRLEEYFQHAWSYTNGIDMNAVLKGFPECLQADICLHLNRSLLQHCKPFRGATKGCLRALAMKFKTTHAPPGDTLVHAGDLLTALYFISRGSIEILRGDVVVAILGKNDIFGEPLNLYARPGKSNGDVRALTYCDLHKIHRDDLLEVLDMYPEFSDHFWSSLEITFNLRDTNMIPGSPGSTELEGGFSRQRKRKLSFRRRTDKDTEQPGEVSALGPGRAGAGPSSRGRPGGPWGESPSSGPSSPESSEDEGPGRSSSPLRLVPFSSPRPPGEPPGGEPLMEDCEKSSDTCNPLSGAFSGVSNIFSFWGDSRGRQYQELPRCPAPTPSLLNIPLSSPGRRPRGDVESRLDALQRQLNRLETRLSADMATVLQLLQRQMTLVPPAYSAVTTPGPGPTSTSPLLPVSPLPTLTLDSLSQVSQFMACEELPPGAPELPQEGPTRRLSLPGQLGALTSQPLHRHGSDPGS
Chain of CYP2C9 (P11712 whole entry): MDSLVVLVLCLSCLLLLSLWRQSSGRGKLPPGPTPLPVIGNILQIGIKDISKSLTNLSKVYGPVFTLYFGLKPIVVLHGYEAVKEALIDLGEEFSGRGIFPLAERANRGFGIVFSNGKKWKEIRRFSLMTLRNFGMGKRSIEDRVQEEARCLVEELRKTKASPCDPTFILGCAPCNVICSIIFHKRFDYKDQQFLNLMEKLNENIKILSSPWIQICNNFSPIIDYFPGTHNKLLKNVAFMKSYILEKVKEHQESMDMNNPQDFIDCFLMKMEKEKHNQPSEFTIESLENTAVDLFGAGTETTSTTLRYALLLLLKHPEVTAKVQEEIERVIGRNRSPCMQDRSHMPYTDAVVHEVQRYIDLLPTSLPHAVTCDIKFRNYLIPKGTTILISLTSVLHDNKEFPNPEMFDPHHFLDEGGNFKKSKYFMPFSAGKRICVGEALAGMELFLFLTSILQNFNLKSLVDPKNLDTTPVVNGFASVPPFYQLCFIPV
Chain of CYP3A4 (P08684 whole entry): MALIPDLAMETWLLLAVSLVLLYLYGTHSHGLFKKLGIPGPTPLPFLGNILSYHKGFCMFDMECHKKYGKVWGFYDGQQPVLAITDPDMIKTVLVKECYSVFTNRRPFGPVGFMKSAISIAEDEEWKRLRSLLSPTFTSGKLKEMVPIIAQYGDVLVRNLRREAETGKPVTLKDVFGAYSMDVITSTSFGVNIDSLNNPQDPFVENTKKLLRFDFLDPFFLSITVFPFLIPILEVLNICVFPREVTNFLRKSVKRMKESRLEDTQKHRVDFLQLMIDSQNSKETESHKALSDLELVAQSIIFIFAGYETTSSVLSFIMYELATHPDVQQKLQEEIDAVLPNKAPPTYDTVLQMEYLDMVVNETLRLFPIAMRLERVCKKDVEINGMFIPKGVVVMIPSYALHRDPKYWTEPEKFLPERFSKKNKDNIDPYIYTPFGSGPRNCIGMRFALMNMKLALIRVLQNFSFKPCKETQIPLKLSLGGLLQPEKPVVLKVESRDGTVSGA

Row | Papp [1] | hepatocyte CLint [2] | pEC50 [3] | Structure (SMILES) | further results
1 | 5 ×10⁻⁶ cm/s | 20 µL/min/1e6 cells | 7.85 | N#Cc1ccc(COc2nc(N3CCC4(CC3)C[C@@H]4c3nc4ccc(C(=O)O)cc4n3C[C@@H]3CCO3)ccc2F)c(F)c1 | 
2 | 5 ×10⁻⁶ cm/s | 37 µL/min/1e6 cells | 8.39 | N#Cc1ccc(COc2nc(N3CCC4(CC3)C[C@@H]4c3nc4ccc(C(=O)O)cc4n3C[C@@H]3CCO3)c(F)cc2F)c(F)c1 | 
3 | 6 ×10⁻⁶ cm/s | 32 µL/min/1e6 cells | 8.24 | N#Cc1ccc(COc2ccc(F)c(N3CCC4(CC3)C[C@@H]4c3nc4ccc(C(=O)O)cc4n3C[C@@H]3CCO3)n2)c(F)c1 | Drug metabolism [5]: Metabolite_Detected; inhibition at 3 µM (CYP3A4): < 20%; pKi [6]: < 4.40; inhibition at 3 µM (CYP2C9): < 20%; inhibition at 3 µM (CYP2C8): 60%; Drug metabolism [7]: Metabolite_Detected; inhibition at 3 µM (CYP1A2): < 20%; logD [8]: 2.3; pIC50 (PDE3A1): 6.39; inhibition at 3 µM (CYP2D6): < 20%
4 | 5 ×10⁻⁶ cm/s | 21 µL/min/1e6 cells |  | O=C(O)c1ccc2nc([C@H]3CC34CCN(c3nc(OCc5ccc(Cl)cc5F)ncc3F)CC4)n(C[C@H]3CCO3)c2c1 | 
5 | 2 ×10⁻⁶ cm/s | 30 µL/min/1e6 cells | 7.49 | O=C(O)c1ccc2nc([C@H]3CC34CCN(c3nccc(OCc5ccc(Cl)cc5F)n3)CC4)n(C[C@@H]3CCO3)c2c1 | 
6 | 7 ×10⁻⁶ cm/s | 23 µL/min/1e6 cells | 7.82 | N#Cc1ccc(COc2cccc(N3CCC4(CC3)C[C@@H]4c3nc4ccc(C(=O)O)cc4n3C[C@@H]3CCO3)n2)c(F)c1 | 
7 | 3 ×10⁻⁶ cm/s | 27 µL/min/1e6 cells | 7.72 | O=C(O)c1ccc2nc([C@H]3CC34CCN(c3ncc(F)c(OCc5ccc(Cl)cc5F)n3)CC4)n(C[C@@H]3CCO3)c2c1 | 

Second part, the compound before the results:

Row | Structure (SMILES) | Papp [1] | hepatocyte CLint [2] | pEC50 [3] | further results
8 | O=C(O)c1ccc2nc([C@H]3CC34CCN(c3nc(OCc5ccc(Cl)cc5F)ncc3F)CC4)n(C[C@@H]3CCO3)c2n1 | 7 ×10⁻⁶ cm/s | 14 µL/min/1e6 cells | 7.82 | 
9 | N#Cc1ccc(COc2cccc(C3CCN(Cc4nc5ccc(C(=O)O)cc5n4C[C@@H]4CCO4)CC3)n2)c(F)c1 [DANUGLIPRON] | 10 ×10⁻⁶ cm/s | 7 µL/min/1e6 cells |  | 
10 | Cn1c(CC2CCN(c3nc(OCc4ccc(Cl)cc4F)ncc3F)CC2)nc2ncccc21 |  |  |  | Activity [4]: 75%
11 | Cn1c(CC2CCN(c3nc(OCc4ccc(Cl)cc4F)ncc3F)CC2)nc2ccccc21 |  |  |  | Activity [4]: 40%
12 | Cn1c(CN2CCC(c3nc(OCc4ccc(Cl)cc4F)ncc3F)CC2)nc2ccccc21 |  |  |  | Activity [4]: 70%
